Columns and labels:
Format in all cases: functional
[1] = test system: 786-0; test: Cytotoxicity against human 786-O cells assessed as cell growth at 0.1 uM after 48 hrs by SRB assay relative to control; settings: 786-0, 48 h, read-out: Activity
[2] = test system: ACHN; test: Cytotoxicity against human ACHN cells assessed as cell growth at 0.1 uM after 48 hrs by SRB assay relative to control; settings: read-out: Activity
[3] = test system: UACC-257; test: Cytotoxicity against human UACC257 cells assessed as cell growth at 0.1 uM after 48 hrs by SRB assay relative to control; settings: UACC-257, 48 h, read-out: Activity
[4] = test system: PC-3; test: Cytotoxicity against human PC3 cells assessed as cell growth at 0.1 uM after 48 hrs by SRB assay relative to control; settings: PC-3, 48 h, read-out: Activity
[5] = test system: CAKI-1; test: Cytotoxicity against human Caki1 cells after 48 hrs by SRB assay; settings: CAKI-1, 48 h
[6] = test system: PC-3; test: Cytotoxicity against human PC3 cells assessed as cell growth at 1 uM after 48 hrs by SRB assay relative to control; settings: PC-3, 48 h, read-out: Activity
[7] = test system: SK-MEL-2; test: Cytotoxicity against human SK-MEL-2 cells assessed as cell growth at 100 uM after 48 hrs by SRB assay relative to control; settings: SK-MEL-2, 48 h, read-out: Activity
[8] = test system: UO-31; test: Cytotoxicity against human UO31 cells assessed as cell growth at 0.1 uM after 48 hrs by SRB assay relative to control; settings: UO-31, 48 h, read-out: Activity
[9] = test system: M14; test: Cytotoxicity against human M14 cells assessed as cell growth at 0.1 uM after 48 hrs by SRB assay relative to control; settings: M14, 48 h, read-out: Activity
[10] = test system: Malme-3M; test: Cytotoxicity against human MALME-3M cells assessed as cell growth at 0.1 uM after 48 hrs by SRB assay relative to control; settings: read-out: Activity
[11] = test system: 786-0; test: Cytotoxicity against human 786-O cells after 48 hrs by SRB assay; settings: 786-0, 48 h
[12] = test system: NCI-H522; test: Cytotoxicity against human NCI-H522 cells assessed as cell growth at 0.1 uM after 48 hrs by SRB assay relative to control; settings: NCI-H522, 48 h, read-out: Activity
[13] = test system: SW-620; test: Cytotoxicity against human SW620 cells assessed as cell growth at 0.1 uM after 48 hrs by SRB assay relative to control; settings: SW-620, 48 h, read-out: Activity
[14] = test system: OVCAR-5; test: Cytotoxicity against human OVCAR5 cells after 48 hrs by SRB assay; settings: OVCAR-5, 48 h
[15] = test system: CCRF-CEM; test: Cytotoxicity against human CCRF-CEM cells assessed as cell growth at 0.01 uM after 48 hrs by SRB assay relative to control; settings: read-out: Activity
[16] = test system: MOLT-4; test: Cytotoxicity against human MOLT4 cells assessed as cell growth at 100 uM after 48 hrs by SRB assay relative to control; settings: MOLT-4, 48 h, read-out: Activity
[17] = test system: OVCAR-5; test: Cytotoxicity against human OVCAR5 cells assessed as cell growth at 1 uM after 48 hrs by SRB assay relative to control; settings: OVCAR-5, 48 h, read-out: Activity
[18] = test system: UACC-62; test: Cytotoxicity against human UACC62 cells after 48 hrs by SRB assay; settings: UACC-62, 48 h
[19] = test system: A549; test: Cytotoxicity against human A549 cells assessed as cell growth at 0.1 uM after 48 hrs by SRB assay relative to control; settings: A549, 48 h, read-out: Activity
[20] = test system: SF-268; test: Cytotoxicity against human SF268 cells assessed as cell growth at 100 uM after 48 hrs by SRB assay relative to control; settings: SF-268, 48 h, read-out: Activity
[21] = test system: MCF7; test: Cytotoxicity against human MCF7 cells assessed as cell growth at 100 uM after 48 hrs by SRB assay relative to control; settings: MCF7, 48 h, read-out: Activity
[22] = test system: PC-3; test: Cytotoxicity against human PC3 cells after 48 hrs by SRB assay; settings: PC-3, 48 h
[23] = test system: OVCAR-3; test: Cytotoxicity against human OVCAR3 cells assessed as cell growth at 0.1 uM after 48 hrs by SRB assay relative to control; settings: OVCAR-3, 48 h, read-out: Activity
[24] = test system: KM12; test: Cytotoxicity against human KM12 cells assessed as cell growth at 1 uM after 48 hrs by SRB assay relative to control; settings: KM12, 48 h, read-out: Activity
[25] = test system: Hs-578T; test: Cytotoxicity against human Hs 578T cells after 48 hrs by SRB assay
[26] = test system: SF-295; test: Cytotoxicity against human SF295 cells assessed as cell growth at 100 uM after 48 hrs by SRB assay relative to control; settings: SF-295, 48 h, read-out: Activity
[27] = test system: HT-29; test: Cytotoxicity against human HT-29 cells assessed as cell growth at 100 uM after 48 hrs by SRB assay relative to control; settings: HT-29, 48 h, read-out: Activity
[28] = test system: OVCAR-5; test: Cytotoxicity against human OVCAR5 cells assessed as cell growth at 0.01 uM after 48 hrs by SRB assay relative to control; settings: OVCAR-5, 48 h, read-out: Activity
[29] = test system: Malme-3M; test: Cytotoxicity against human MALME-3M cells assessed as cell growth at 0.01 uM after 48 hrs by SRB assay relative to control; settings: read-out: Activity
[30] = test system: SW-620; test: Cytotoxicity against human SW620 cells after 48 hrs by SRB assay; settings: SW-620, 48 h
[31] = test system: Malme-3M; test: Cytotoxicity against human MALME-3M cells after 48 hrs by SRB assay
[32] = test system: KM12; test: Cytotoxicity against human KM12 cells assessed as cell growth at 0.1 uM after 48 hrs by SRB assay relative to control; settings: KM12, 48 h, read-out: Activity
[33] = test system: SF-539; test: Cytotoxicity against human SF539 cells assessed as cell growth at 0.01 uM after 48 hrs by SRB assay relative to control; settings: SF-539, 48 h, read-out: Activity
[34] = test system: LOX IMVI; test: Cytotoxicity against human LOXIMVI cells assessed as cell growth at 100 uM after 48 hrs by SRB assay relative to control; settings: read-out: Activity
[35] = test system: HOP-92; test: Cytotoxicity against human HOP92 cells assessed as cell growth at 0.01 uM after 48 hrs by SRB assay relative to control; settings: HOP-92, 48 h, read-out: Activity
[36] = test system: SF-268; test: Cytotoxicity against human SF268 cells assessed as cell growth at 0.1 uM after 48 hrs by SRB assay relative to control; settings: SF-268, 48 h, read-out: Activity
[37] = test system: NCI/ADR-RES; test: Cytotoxicity against human NCI-ADR-RES cells assessed as cell growth at 100 uM after 48 hrs by SRB assay relative to control; settings: read-out: Activity

Structure (SMILES): Cn1cc(C2=C(c3cn(C)c4ncccc34)C(=O)NC2=O)c2ccccc21
- growth at 0.1 µM [1]: 101%
- growth at 0.1 µM [2]: 99%
- growth at 0.1 µM [3]: 103%
- growth at 0.1 µM [4]: 94%
- GI50 [5]: 1.19 µM
- TGI [5]: 10.2 µM
- growth at 1 µM [6]: 86%
- growth at 100 µM [7]: -55%
- growth at 0.1 µM [8]: 89%
- growth at 0.1 µM [9]: 108%
- growth at 0.1 µM [10]: 112%
- GI50 [11]: 3.59 µM
- TGI [11]: 23.7 µM
- growth at 0.1 µM [12]: 98%
- growth at 0.1 µM [13]: 96%
- GI50 [14]: 3.88 µM
- TGI [14]: 29.1 µM
- growth at 0.01 µM [15]: 98%
- growth at 100 µM [16]: -24%
- growth at 1 µM [17]: 103%
- GI50 [18]: 4.22 µM
- TGI [18]: 22 µM
- growth at 0.1 µM [19]: 94%
- growth at 100 µM [20]: -12%
- growth at 100 µM [21]: -15%
- GI50 [22]: 3.72 µM
- TGI [22]: 52.9 µM
- growth at 0.1 µM [23]: 111%
- growth at 1 µM [24]: 82%
- GI50 [25]: 847 nM
- TGI [25]: 4.08 µM
- growth at 100 µM [26]: -20%
- growth at 100 µM [27]: -10%
- growth at 0.01 µM [28]: 98%
- growth at 0.01 µM [29]: 109%
- GI50 [30]: 3.61 µM
- TGI [30]: 32.6 µM
- GI50 [31]: 5.47 µM
- TGI [31]: 52.4 µM
- growth at 0.1 µM [32]: 102%
- growth at 0.01 µM [33]: 99%
- growth at 100 µM [34]: -18%
- growth at 0.01 µM [35]: 90%
- growth at 0.1 µM [36]: 102%
- growth at 100 µM [37]: -19%

Structure (SMILES): N#CCCCCCn1cc(C2=C(c3cn(CCCCCC#N)c4ccccc34)C(=O)N(O)C2=O)c2ccccc21
- growth at 0.1 µM [1]: 101%
- growth at 0.1 µM [2]: 91%
- growth at 0.1 µM [3]: 100%
- growth at 0.1 µM [4]: 88%
- GI50 [5]: 21.3 µM
- LC50 [5]: > 100 µM
- TGI [5]: > 100 µM
- growth at 1 µM [6]: 80%
- growth at 100 µM [7]: -38%
- growth at 0.1 µM [8]: 66%
- growth at 0.1 µM [9]: 85%
- growth at 0.1 µM [10]: 94%
- GI50 [11]: 10.3 µM
- LC50 [11]: > 100 µM
- TGI [11]: > 100 µM
- growth at 0.1 µM [12]: 86%
- growth at 0.1 µM [13]: 97%
- GI50 [14]: 38.4 µM
- LC50 [14]: > 100 µM
- TGI [14]: > 100 µM
- growth at 0.01 µM [15]: 91%
- growth at 100 µM [16]: 2%
- growth at 1 µM [17]: 91%
- GI50 [18]: 3.23 µM
- LC50 [18]: 84.4 µM
- TGI [18]: 16 µM
- growth at 0.1 µM [19]: 102%
- growth at 100 µM [20]: 8%
- growth at 100 µM [21]: -14%
- GI50 [22]: 3.92 µM
- LC50 [22]: > 100 µM
- TGI [22]: 74 µM
- growth at 0.1 µM [23]: 101%
- growth at 1 µM [24]: 102%
- GI50 [25]: 3970 nM
- LC50 (50% lethal concentration) [25]: > 100 µM
- TGI [25]: > 100 µM
- growth at 100 µM [26]: -37%
- growth at 100 µM [27]: -33%
- growth at 0.01 µM [28]: 99%
- growth at 0.01 µM [29]: 100%
- GI50 [30]: 4.76 µM
- LC50 [30]: > 100 µM
- TGI [30]: > 100 µM
- GI50 [31]: 12 µM
- LC50 (concentration killing 50% of cells) [31]: > 100 µM
- TGI [31]: 62.8 µM
- growth at 0.1 µM [32]: 97%
- growth at 0.01 µM [33]: 94%
- growth at 100 µM [34]: -9%
- growth at 0.01 µM [35]: 97%
- growth at 0.1 µM [36]: 95%
- growth at 100 µM [37]: 24%
